Test results taken from patent US10426785B2, “C-19 steroids for inhibiting neovascularization” (priority 2014, dated 2019).

Experiments:
Assay type in all cases: cell-based, human
HUVEC cells [1] = assay: WST-1 proliferation assay of HUVEC cells; details: 1, 2 and 5 μM; all 3 HUVEC cell cultures; p<0.001 (t-test); FIG. 1A
Experimental: All experiments were additionally run in several replicates (one HUVEC in different passages as well as different preparations.
For determining the proliferation rates, WST-1 tests were performed. Essentially, 1000 HUVEC cells/well were seeded in a 96-well plate and exposed to the indicated concentrations of 4-OHT (also denoted by lab code CR 1447) for 5 days. Inhibition of proliferation was quantified by measuring the enzymatic cleavage of the tetrazolium salt WST-1 to formazan by cellular mitochondrial dehydrogenases as a readout for cell viability, wherein cell viability of treated cells is expressed as the percentage (%) of untreated controls containing only the solvent in appropriate concentrations.
Cells were grown and subcultured in Endothelial Cell Growth medium (EGM) for 3 and 5 days, respectively.

HUVEC cells [2] = assay: Wound healing (scratch) assay of HUVEC cells; details: 10 μM, FIG. 3
Experimental: (§1) Briefly, human umbilical vein endothelial cells (in the following HUVEC) were freshly isolated out of human umbilical cords by methods known in the art and were used in the experiments from passage p4 up to passage p10 to prevent any artefacts originating from in vitro changes of the cells.
(§2) In all experiments, the C-19 steroid compound 4-OHT was added to the cells in the indicated concentration in EGM-2 medium (Lonza) in order to avoid any artefacts originating from exogenous factors contained in the medium.
Another method for studying cell migration is the wound healing (scratch) assay. This assay resembles the events occurring in an acute wound healing process. By release of factors from the wound area endothelial cells migrate into the scratch area, which shall resemble the process of healing and closure of the wound by vascularization and later scar formation.
In summary, HUVEC cells were seeded in a 12-well plate and allow to grow until reaching confluency. Subsequently, a scratch was set, thereby removing the cells within the scratch area. The cells were exposed to 10 μM of 4-OHT and the migration of endothelial cells into the scratch area was monitored microscopically using a schedule from 2 up to 48 hrs, depending on the individual experimental design. […]

HUVEC cells [3] = assay: Tube migration (tube formation) assay of HUVEC cells on matrigel; details: HUVEC on matrigel (7 mg/ml), 10 μM/L, FIG. 4
Experimental: as §1, §2
After migration into the tissue of a scratch, HUVEC cells change their growth characteristics and form microvessels. This effect can be assessed microscopically.
HUVEC cells were seeded on matrigel (7 mg/ml). Cell suspensions as well as gels containing 10 μM/L 4-OHT were added upon seeding, It was allowed to form branching points during adherence onto this surface mimicking basal membrane character. Tube formation was analyzed microscopically after 12 and 48 hours.
When the human endothelial cells were subjected onto matrigel pads, branching points as one marker of tube formation are inhibited by 4-OHT as compared to untreated controls (red arrows).

HUVEC cells [4] = assay: Transwell migration assay of HUVEC cells with VEGF as attractant; details: 48 hrs, VEGF as attractant in lower chamber, compared to control, FIG. 2B
Experimental: as §1, §2
A prerequisite of angiogenesis is the capability of endothelial cells to migrate into the tissue. This process is observed in wound healing and also in the process of tumor growth. Endothelial cells migrate into the tissue along a gradient of factors such as VEGF. This behavior can be studied in an in vitro model of migration using a transwell system, as e.g. apparent from FIG. 2A.
For studying the migration of HUVEC cells using the transwell system with PET-membranes having a 3 μm pore size (24-wells w/o fibronectin-coating), HUVEC cells in different cell numbers were placed in the upper compartment, whereas the attractant was placed in the lower compartment. The number of cells on the attractant site of the membrane was compared with the number of cells visible in a control system (buffer control) and with the attractant (VEGF) in the presence of 4-OHT. […]

C[C@]12CC[C@H]3[C@@H](CCC4=C(O)C(=O)CC[C@@]43C)[C@@H]1CC[C@@H]2O [4-OHT, 4-hydroxytestosterone]
growth inhibition (WST-1 cell viability vs untreated controls) (HUVEC cells [1]): highly significant | migration of HUVEC cells into the scratch area compared to untreated control cells (HUVEC cells [2]; after 24 h): clear reduction | endothelial cell migration (wound-healing / scratch assay) (HUVEC cells [2]; monitored 2 up to 48 hrs): effectively inhibited | tube formation of human endothelial cells (HUVEC cells [3]; analyzed after 12 and 48 hours): significantly inhibited | branching of the cells (branching points as marker of tube formation) (HUVEC cells [3]; compared to untreated controls): markedly inhibited | migration of cells into the membrane (transwell) (HUVEC cells [4]): significantly inhibits
